From the supplement of paper PMC10307832

Experiments:
Experiment in all cases: relative viability (nuclei count vs DMSO), 5 days (fraction); higher = more cells survive
[1] = system: HARA
Outline: (§1)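 A single step with final 0.05% Triton X-100, 1% formaldehyde and 1 ug/ml Hoechst fixed the cells and stained nuclei 5 days after treatment. Lung cancer cell lines in 1536-well plates had been treated by pin tool the day after seeding with one drug alone or a fixed anchor-drug dose plus five library-drug doses (not always all listed) in √10 steps, and nuclei were counted on 4× images. Relative viability is the ratio of nuclei in treated wells to nuclei in vehicle wells, taken as the median of duplicate plates.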

[2] = system: HCC-827
Outline: as §1

[3] = system: NCI-H596
Outline: as §1

[4] = system: SK-LU-1
Outline: as §1

[5] = system: NCI-H661
Outline: as §1

[6] = system: BEN
Outline: as §1

[7] = system: NCI-H2170
Outline: as §1

[8] = system: NCI-H2405
Outline: as §1

[9] = system: NCI-H2087
Outline: as §1

[10] = system: HCC-366
Outline: as §1

[11] = system: NCI-H2342
Outline: as §1

[12] = system: NCI-H2228
Outline: as §1

COc1cc(N2CCC(C(N)=O)CC2)ccc1Nc1nc(N)c(Cl)c(Nc2ccccc2S(=O)(=O)C(C)C)n1 [HG-5-88-01] + CC(=O)Nc1cccc(-n2c(=O)n(C3CC3)c(=O)c3c(Nc4ccc(I)cc4F)n(C)c(=O)c(C)c32)c1 [Trametinib] (partner 0.02 µM)
relative viability ([1]; first compound 0.04 µM): 1.01
relative viability ([1]; first compound 0.1265 µM): 0.709
relative viability ([1]; first compound 0.4 µM): 0.91
relative viability ([1]; first compound 1.265 µM): 0.394
relative viability ([1]; first compound 4 µM): 0.465
relative viability ([2]; first compound 0.04 µM): 0.529
relative viability ([2]; first compound 0.1265 µM): 0.463
relative viability ([2]; first compound 0.4 µM): 0.538
relative viability ([2]; first compound 1.265 µM): 0.18
relative viability ([2]; first compound 4 µM): 0.269
relative viability ([3]; first compound 0.04 µM): 0.901
relative viability ([3]; first compound 0.1265 µM): 0.794
relative viability ([3]; first compound 0.4 µM): 0.75
relative viability ([3]; first compound 1.265 µM): 0.808
relative viability ([3]; first compound 4 µM): 0.778
relative viability ([4]; first compound 0.04 µM): 0.394
relative viability ([4]; first compound 0.1265 µM): 0.388
relative viability ([4]; first compound 0.4 µM): 0.451
relative viability ([4]; first compound 1.265 µM): 0.474
relative viability ([4]; first compound 4 µM): 0.363
relative viability ([5]; first compound 0.04 µM): 0.591
relative viability ([5]; first compound 0.1265 µM): 0.666
relative viability ([5]; first compound 0.4 µM): 0.573
relative viability ([5]; first compound 1.265 µM): 0.554
relative viability ([5]; first compound 4 µM): 0.608
relative viability ([6]; first compound 0.04 µM): 1.04
relative viability ([6]; first compound 0.1265 µM): 1.12
relative viability ([6]; first compound 0.4 µM): 1.16
relative viability ([6]; first compound 1.265 µM): 0.76
relative viability ([6]; first compound 4 µM): 1.06
relative viability ([7]; first compound 0.04 µM): 0.961
relative viability ([7]; first compound 0.1265 µM): 0.964
relative viability ([7]; first compound 0.4 µM): 0.894
relative viability ([7]; first compound 1.265 µM): 0.672
relative viability ([7]; first compound 4 µM): 1.03
relative viability ([8]; first compound 0.04 µM): 0.676
relative viability ([8]; first compound 0.1265 µM): 0.706
relative viability ([8]; first compound 0.4 µM): 0.529
relative viability ([8]; first compound 1.265 µM): 0.455
relative viability ([8]; first compound 4 µM): 0.545
relative viability ([9]; first compound 0.04 µM): 0.238
relative viability ([9]; first compound 0.1265 µM): 0.218
relative viability ([9]; first compound 0.4 µM): 0.194
relative viability ([9]; first compound 1.265 µM): 0.15
relative viability ([9]; first compound 4 µM): 0.164
relative viability ([10]; first compound 0.04 µM): 0.429
relative viability ([10]; first compound 0.1265 µM): 0.366
relative viability ([10]; first compound 0.4 µM): 0.365
relative viability ([10]; first compound 1.265 µM): 0.361
relative viability ([10]; first compound 4 µM): 0.243
relative viability ([11]; first compound 0.04 µM): 0.846
relative viability ([11]; first compound 0.1265 µM): 0.939
relative viability ([11]; first compound 0.4 µM): 0.865
relative viability ([11]; first compound 4 µM): 0.969
relative viability ([12]; first compound 0.04 µM): 0.214
relative viability ([12]; first compound 0.1265 µM): 0.108
relative viability ([12]; first compound 0.4 µM): 0.268
relative viability ([12]; first compound 1.265 µM): 0.174
